Test [1] has as its system Moloney murine leukemia virus (MoLV). Briefly: in vitro XC plaque assay. It is filed as cell-based. Particulars: mouse SC-1 cells; for Mean No. of Foci: control 84 foci. As for the experimental part:
This assay was performed according to the method of Rowe et al. (Virology, 1970, 42, 1136-39) as previously described by L. Hsu, et al. (J. Virological Methods, 1980, 1, 167-77) and T. L. Bowlin and M. R. Proffitt (J. Interferon Res., 1983, 3(1), 19-31). Mouse SC-1 cells (fibroblast) (10⁵) were seeded into each well of 6-well cluster plates (Costar #3506) in 4 ml Minimum Essential Medium (MEM) with 10% Fetal Calf Serum (FCS). Following an 18 hour incubation period (37°C), Moloney murine leukemia virus (MoLV) was applied at a predetermined titer to give optimal (i.e. countable) numbers of virus plaques. Compounds were added 2 hours prior to addition of the virus. Three days later the culture medium was removed, the SC-1 cell monolayers were exposed to UV irradiation (1800 ergs), and rat XC cells (10⁶) were seeded into each well in 4 ml MEM. Following an additional 3 day incubation (37°C), these cells were fixed with ethyl alcohol (95%) and stained with 0.3% crystal violet. Plaques were then counted under low magnification.

Another test relates to RF strain of HIV-1. Briefly: p24 antigen expression from HIV infected T-lymphocytes. It counts as cell-based. Particulars: C8166 T cell line; for p24 Antigen: culture fluid after 3 days. The method, then:
Cells (C8166 T cell line) were pretreated with test compounds at appropriate concentrations for 3 hours prior to virus (RF strain of HIV-1) absorption. Low multiplicity of infection was used and virus absorption period was 1 hour at room temperature. the cells were washed X1 in PBS and resuspended in fresh medium containing the appropriate concentrations of test compound. Cells incubated at 37°C and after 3 days culture fluid was assayed for p24 antigen as a measure of viral replication. Because these compounds were tested as the free base, they had to be taken up in DMSO and therefore a series of DMSO virus controls were needed for comparison.

The test system of a further test is HIV. Particulars: CD4+ cells, Fields, et al., Nature, Vol. 333, 19 May 1988, cited from earlier work.

Structures are written as SMILES. Counter-ions that a name gives are not always drawn.

On to `CCCc1[nH]c(=O)oc1-c1ccncc1` [Test Compound, 4-propyl-5-(4-pyridinyl)-2(3H)-oxazolone], for which the “Mean No. of Foci” value in test [1] (0.10 µg/ml) is reported as 85; in test [1] (0.25 µg/ml), 67; in test [1] (0.5 µg/ml), 68; in test [1] (0.75 µg/ml) it was 63; in test [1] (1 µg/ml, compound added 2 hours prior to virus) it was 33. Also, the inhibition (in general, the drop in the measured response relative to a control, in per cent) at 0.1 µg/mL in test [1] (Murine leukemia virus, SC1, 0.10 µg/ml) came to 0%. Further, the inhibition at 0.25 µg/mL in test [1] (Murine leukemia virus, SC1, 0.25 µg/ml) was found to be 20%. Also, in test [1] (Murine leukemia virus, SC1, 0.5 µg/ml), the inhibition at 0.5 µg/mL was found to be 19%. Moreover, in test [1] (Murine leukemia virus, SC1, 0.75 µg/ml), the inhibition at 0.75 µg/mL was determined as 25%. In addition, the inhibition at 1 µg/mL in test [1] (Murine leukemia virus, SC1, 1 µg/ml, compound added 2 hours prior to virus) worked out at 60.7%; in the test on RF strain of HIV-1 (Human immunodeficiency virus 1, 72 h, 1 µg/ml, DMSO 0.01 %, 3 days) it was 41%. Also, the “p24 Antigen” value came out at 613 pg/mL in the test on RF strain of HIV-1 (1 µg/ml, DMSO 0.01 %, vehicle control 1027 pg/ml) and 244 pg/mL with RF strain of HIV-1 (10 µg/ml, DMSO 0.1 %, vehicle control 2408 pg/ml). The inhibition at 10 µg/mL with RF strain of HIV-1 (Human immunodeficiency virus 1, 72 h, 10 µg/ml, DMSO 0.1 %, 3 days) worked out at 90%.
`CC1CNCCN1S(=O)(=O)c1cccc2cnccc12` (stereo not shown) [1,5-isoquinolinesulphonyl-2-methylpiperazine dihydrochloride]: the “HIV cell surface binding” value in the test on HIV is given as “does not interfere”. Moreover, the viral infectivity entry in the test on HIV (accumulation of virus particles at the cell surface) is reported as “inhibition of viral infectivity”.

(Values after patent publication EP0428103A2, “Prevention of glycoprotein enveloped virus infectivity by pyridyloxazole-2-ones” (MERRELL DOW PHARMACEUTICALS INC., priority 1989, dated 1991).)
